In US12077503B2, “Substituted cyclic amides and their use as herbicides” (FMC CORPORATION, priority 2015, dated 2024):

What was measured:
Format in all cases: in vivo
Kochia (Kochia scoparia) [1] = test: Test A preemergence; settings: Bassia scoparia, pre-emergence, 240 h, read-out: Plant response rating, Kochia; for pest or weed control at 125 g/ha: 125 g ai/ha, preemergence, visual rating after approx. 10 d, 0 to 100 scale where 0 is no effect and 100 is complete control; for pest or weed control at 31 g/ha: Preemergence, 31 g ai/ha, 0 to 100 scale (0 no effect, 100 complete control)
Outline: (§1)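 Each rating is a visual injury score from 0 to 100 given about 10 d after treatment, judged against untreated controls kept alongside in the greenhouse. In loam soil–sand blend, seeds got a preemergence directed soil spray, while postemergence plants were 2 to 10 cm tall at spraying.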

[2] = system: barnyardgrass (Echinochloa crus-galli); test: Test A preemergence; settings: Echinochloa crus-galli, pre-emergence, 240 h, read-out: Plant response rating, Barnyardgrass; for pest or weed control at 125 g/ha: 125 g ai/ha, preemergence, visual rating after approx. 10 d, 0 to 100 scale where 0 is no effect and 100 is complete control; for pest or weed control at 31 g/ha: Preemergence, 31 g ai/ha, 0 to 100 scale (0 no effect, 100 complete control)
Outline: as §1

[3] = system: giant foxtail (Setaria faberii); test: Test A preemergence; settings: Setaria faberi, pre-emergence, 240 h, read-out: Plant response rating, Foxtail, Giant; for pest or weed control at 125 g/ha: 125 g ai/ha, preemergence, visual rating after approx. 10 d, 0 to 100 scale where 0 is no effect and 100 is complete control; for pest or weed control at 31 g/ha: Preemergence, 31 g ai/ha, 0 to 100 scale (0 no effect, 100 complete control)
Outline: as §1

[4] = system: pigweed (Amaranthus retroflexus); test: Test A preemergence; settings: Amaranthus retroflexus, pre-emergence, 240 h, read-out: Plant response rating, Pigweed; for pest or weed control at 125 g/ha: 125 g ai/ha, preemergence, visual rating after approx. 10 d, 0 to 100 scale where 0 is no effect and 100 is complete control; for pest or weed control at 31 g/ha: Preemergence, 31 g ai/ha, 0 to 100 scale (0 no effect, 100 complete control)
[5] = system: ragweed (common ragweed, Ambrosia elatior); test: Test A preemergence; settings: Ambrosia artemisiifolia, pre-emergence, 240 h, read-out: Plant response rating, Ragweed; for pest or weed control at 125 g/ha: 125 g ai/ha, preemergence, visual rating after approx. 10 d, 0 to 100 scale where 0 is no effect and 100 is complete control; for pest or weed control at 31 g/ha: Preemergence, 31 g ai/ha, 0 to 100 scale (0 no effect, 100 complete control)
Outline: as §1

[6] = system: ryegrass, Italian (Italian ryegrass, Lolium multiflorum); test: Test A preemergence; settings: Lolium multiflorum, pre-emergence, 240 h, read-out: Plant response rating, Ryegrass, Italian; for pest or weed control at 125 g/ha: 125 g ai/ha, preemergence, visual rating after approx. 10 d, 0 to 100 scale where 0 is no effect and 100 is complete control; for pest or weed control at 31 g/ha: Preemergence, 31 g ai/ha, 0 to 100 scale (0 no effect, 100 complete control)
Outline: as §1

[7] = system: Galium (catchweed bedstraw, Galium aparine); test: Test A postemergence; settings: Galium, post-emergence, 240 h; for pest or weed control at 125 g/ha: 125 g ai/ha, postemergence, visual injury rating after approximately 10 d, read-out: Galium plant response rating (0 to 100 scale, 0 no effect, 100 complete control); for pest or weed control at 31 g/ha: Postemergence, 31 g ai/ha, visual injury after approx. 10 d, 0 to 100 scale, 0 no effect, 100 complete control, read-out: Plant response rating, Galium
Outline: as §1

Kochia (Kochia scoparia) [8] = test: Test A postemergence; settings: Bassia scoparia, post-emergence, 240 h; for pest or weed control at 125 g/ha: 125 g ai/ha, postemergence, visual injury rating after approximately 10 d, read-out: Kochia plant response rating (0 to 100 scale, 0 no effect, 100 complete control); for pest or weed control at 31 g/ha: Postemergence, 31 g ai/ha, visual injury after approx. 10 d, 0 to 100 scale, 0 no effect, 100 complete control, read-out: Plant response rating, Kochia
Outline: as §1

[9] = system: barnyardgrass (Echinochloa crus-galli); test: Test A postemergence; settings: Echinochloa crus-galli, post-emergence, 240 h; for pest or weed control at 125 g/ha: 125 g ai/ha, postemergence, visual injury rating after approximately 10 d, read-out: Barnyardgrass plant response rating (0 to 100 scale, 0 no effect, 100 complete control); for pest or weed control at 31 g/ha: Postemergence, 31 g ai/ha, visual injury after approx. 10 d, 0 to 100 scale, 0 no effect, 100 complete control, read-out: Plant response rating, Barnyardgrass
Outline: as §1

[10] = system: blackgrass (Alopecurus myosuroides); test: Test A postemergence; settings: Alopecurus myosuroides, post-emergence, 240 h; for pest or weed control at 125 g/ha: 125 g ai/ha, postemergence, visual injury rating after approximately 10 d, read-out: Blackgrass plant response rating (0 to 100 scale, 0 no effect, 100 complete control); for pest or weed control at 31 g/ha: Postemergence, 31 g ai/ha, visual injury after approx. 10 d, 0 to 100 scale, 0 no effect, 100 complete control, read-out: Plant response rating, Blackgrass
Outline: as §1

corn (Zea mays) = test: Test A postemergence; settings: Zea mays, post-emergence, 240 h; for plant injury at 125 g/ha: 125 g ai/ha, postemergence, visual injury rating after approximately 10 d, read-out: Corn plant response rating (0 to 100 scale, 0 no effect, 100 complete control); for Corn plant response rating (crop injury, 0 = no effect, 100 = complete kill) at 31 g/ha: Postemergence, 31 g ai/ha, visual injury after approx. 10 d, 0 to 100 scale, 100 complete control
Outline: as §1

[11] = system: giant foxtail (Setaria faberii); test: Test A postemergence; settings: Setaria faberi, post-emergence, 240 h; for pest or weed control at 125 g/ha: 125 g ai/ha, postemergence, visual injury rating after approximately 10 d, read-out: Foxtail, Giant plant response rating (0 to 100 scale, 0 no effect, 100 complete control); for pest or weed control at 31 g/ha: Postemergence, 31 g ai/ha, visual injury after approx. 10 d, 0 to 100 scale, 0 no effect, 100 complete control, read-out: Plant response rating, Foxtail, Giant
Outline: as §1

[12] = system: pigweed (Amaranthus retroflexus); test: Test A postemergence; settings: Amaranthus retroflexus, post-emergence, 240 h; for pest or weed control at 125 g/ha: 125 g ai/ha, postemergence, visual injury rating after approximately 10 d, read-out: Pigweed plant response rating (0 to 100 scale, 0 no effect, 100 complete control); for pest or weed control at 31 g/ha: Postemergence, 31 g ai/ha, visual injury after approx. 10 d, 0 to 100 scale, 0 no effect, 100 complete control, read-out: Plant response rating, Pigweed
Outline: as §1

[13] = system: ragweed (common ragweed, Ambrosia elatior); test: Test A postemergence; settings: Ambrosia artemisiifolia, post-emergence, 240 h; for pest or weed control at 125 g/ha: 125 g ai/ha, postemergence, visual injury rating after approximately 10 d, read-out: Ragweed plant response rating (0 to 100 scale, 0 no effect, 100 complete control); for pest or weed control at 31 g/ha: Postemergence, 31 g ai/ha, visual injury after approx. 10 d, 0 to 100 scale, 0 no effect, 100 complete control, read-out: Plant response rating, Ragweed
Outline: as §1

[14] = system: ryegrass, Italian (Italian ryegrass, Lolium multiflorum); test: Test A postemergence; settings: Lolium multiflorum, post-emergence, 240 h; for pest or weed control at 125 g/ha: 125 g ai/ha, postemergence, visual injury rating after approximately 10 d, read-out: Ryegrass, Italian plant response rating (0 to 100 scale, 0 no effect, 100 complete control); for pest or weed control at 31 g/ha: Postemergence, 31 g ai/ha, visual injury after approx. 10 d, 0 to 100 scale, 0 no effect, 100 complete control, read-out: Plant response rating, Ryegrass, Italian
Outline: as §1

Work on `CN1CC[C@H](c2ccc3c(c2)OC(F)(F)O3)[C@@H](C(=O)Nc2ccccc2C(F)(F)F)C1=O` [Compound 811] yielded a pest or weed control at 125 g/ha (Kochia (Kochia scoparia) [1]) of 0%, a pest or weed control at 31 g/ha (Kochia (Kochia scoparia) [1]) of 0% and a pest or weed control at 125 g/ha [2] of 40%. For the same compound, the pest or weed control at 31 g/ha [2] was 0%, the pest or weed control at 125 g/ha [3] was 40% and the pest or weed control at 31 g/ha [3] was 0%. The pest or weed control at 125 g/ha [4] was 0%, the pest or weed control at 31 g/ha [4] was 0% and the pest or weed control at 125 g/ha [5] was 0%. It also gave a pest or weed control at 31 g/ha [5] of 0%, a pest or weed control at 125 g/ha [6] of 0% and a pest or weed control at 31 g/ha [6] of 0%. For the same compound, the pest or weed control at 125 g/ha [7] was 0%, the pest or weed control at 31 g/ha [7] was 0% and the pest or weed control at 125 g/ha (Kochia (Kochia scoparia) [8]) was 0%. The pest or weed control at 31 g/ha (Kochia (Kochia scoparia) [8]) was 0%, the pest or weed control at 125 g/ha [9] was 40% and the pest or weed control at 31 g/ha [9] was 0%. For the same compound, the pest or weed control at 125 g/ha [10] was 0%, the pest or weed control at 31 g/ha [10] was 0% and the plant injury at 125 g/ha (corn (Zea mays)) was 0%. The Corn plant response rating (crop injury, 0 = no effect, 100 = complete kill) at 31 g/ha (corn (Zea mays)) was 0%, the pest or weed control at 125 g/ha [11] was 60% and the pest or weed control at 31 g/ha [11] was 0%. It also gave a pest or weed control at 125 g/ha [12] of 0%, a pest or weed control at 31 g/ha [12] of 0% and a pest or weed control at 125 g/ha [13] of 0%. The pest or weed control at 31 g/ha [13] was 0%, the pest or weed control at 125 g/ha [14] was 0% and the pest or weed control at 31 g/ha [14] was 0%.
`CN1CC[C@H](c2ccc3c(c2)OC(F)(F)O3)[C@@H](C(=O)Nc2cccc(F)c2F)C1=O` [Compound 812] showed a pest or weed control at 125 g/ha (Kochia (Kochia scoparia) [1]) of 0%, a pest or weed control at 31 g/ha (Kochia (Kochia scoparia) [1]) of 0% and a pest or weed control at 125 g/ha [2] of 90%. It also gave a pest or weed control at 31 g/ha [2] of 70%, a pest or weed control at 125 g/ha [3] of 90% and a pest or weed control at 31 g/ha [3] of 80%. The pest or weed control at 125 g/ha [4] was 0%, the pest or weed control at 31 g/ha [4] was 0% and the pest or weed control at 125 g/ha [5] was 0%. For the same compound, the pest or weed control at 31 g/ha [5] was 0%, the pest or weed control at 125 g/ha [6] was 20% and the pest or weed control at 31 g/ha [6] was 0%. It also gave a pest or weed control at 125 g/ha [7] of 50%, a pest or weed control at 31 g/ha [7] of 20% and a pest or weed control at 125 g/ha (Kochia (Kochia scoparia) [8]) of 20%. The pest or weed control at 31 g/ha (Kochia (Kochia scoparia) [8]) was 0%, the pest or weed control at 125 g/ha [9] was 90% and the pest or weed control at 31 g/ha [9] was 90%. It also gave a pest or weed control at 125 g/ha [10] of 80%, a pest or weed control at 31 g/ha [10] of 40% and a plant injury at 125 g/ha (corn (Zea mays)) of 80%. It also gave a Corn plant response rating (crop injury, 0 = no effect, 100 = complete kill) at 31 g/ha (corn (Zea mays)) of 30%, a pest or weed control at 125 g/ha [11] of 90% and a pest or weed control at 31 g/ha [11] of 70%. The pest or weed control at 125 g/ha [12] was 0%, the pest or weed control at 31 g/ha [12] was 0% and the pest or weed control at 125 g/ha [13] was 0%. For the same compound, the pest or weed control at 31 g/ha [13] was 0%, the pest or weed control at 125 g/ha [14] was 30% and the pest or weed control at 31 g/ha [14] was 0%.
